Values of other authors, collected in patent publication US11589578B2, “Painting with biocides composition and/or prolonged release pesticides” (priority 2018, dated 2023).
Where two headings read alike, the source gives them in different places.

Conditions: for Stability in aqueous media, in words: pH as stated in the value

## CCOP(=S)(OCC)Oc1nc(Cl)c(Cl)cc1Cl [Chlorpyrifos]
Aqueous media, pH 10
  Decomposition time (Average life): 7 days

## C=CCC1=C(C)C(OC(=O)C2C(C=C(C)C)C2(C)C)CC1=O [D-allethrin]
Aqueous media, pH 7
  Decomposition time (Average life): 500 days
Aqueous media, pH 9
  Decomposition time (Average life): (4.3 days)
  Stability in aqueous media, in words: Stable at a pH 5 after 31 days

## CCOP(=S)(OCC)Oc1cc(C)nc(C(C)C)n1 [Diazinon]
Aqueous media, pH 5
  Decomposition time (Average life): 31 days
Aqueous media, pH 7.5
  Decomposition time (Average life): 185 days
Aqueous media, pH 9
  Decomposition time (Average life): 136 days

## O=C(NC(=O)c1c(F)cccc1F)Nc1ccc(Cl)cc1 [Diflubenzuron]
Aqueous media, pH 9
  Behaviour at pH 9, in words: Hydrolyzes

## CCN(CC)c1nc(C)cc(OP(=S)(OC)OC)n1 [Methylperimiphos]
Aqueous media, pH 5
  Decomposition time (Average life): 7 days
Aqueous media, pH 8
  Decomposition time (Average life): 5 days

## CC1(C)C(C=C(Cl)Cl)C1C(=O)OC(C#N)c1cccc(Oc2ccccc2)c1 (stereo not shown) [cypermethrin]
Aqueous media, pH 9
  Decomposition time (Average life): 7 days

## CC1(C)[C@H](C(=O)O[C@H](C#N)c2cccc(Oc3ccccc3)c2)[C@@H]1C=C(Br)Br [deltamethrin]
Aqueous media, pH 7
  Decomposition time (Average life): 0.33 days
  Stability in aqueous media, in words: more stable in medium acid solutions
